How the values were obtained:
cocklebur = assay: Test B pre/postemergence cocklebur; type: in vivo, Xanthium strumarium
How it was run: (§1)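 Herbicidal effect was estimated by eye on a ten-point control scale after plants spent twelve to sixteen days in a greenhouse following soil or foliar treatment. Foliar sprays targeted plants at one to four leaves; all doses were formulated in a non-phytotoxic solvent with surfactant.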

giant foxtail = assay: Test B pre/postemergence giant foxtail; type: in vivo, Setaria faberii
How it was run: as §1

rape = assay: Test B pre/postemergence rape; type: in vivo, Brassica napus
How it was run: as §1

wheat = assay: Test B pre/postemergence wheat; type: in vivo, Triticum aestivum
How it was run: as §1

bedstraw = assay: Test B pre/postemergence bedstraw; type: in vivo, Galium aparine
How it was run: as §1

purple nutsedge = assay: Test B pre/postemergence purple nutsedge; type: in vivo, Cyperus rotundus
How it was run: as §1

surinam grass = assay: Test B pre/postemergence surinam grass; type: in vivo, Brachiaria decumbens
How it was run: as §1

soybean = assay: Test B pre/postemergence soybean; type: in vivo, Glycine max
How it was run: as §1

morningglory = assay: Test B pre/postemergence morningglory; type: in vivo, Ipomoea hederacea
How it was run: as §1

sugar beet = assay: Test B pre/postemergence sugar beet; type: in vivo, Beta vulgaris
How it was run: as §1

pigweed = assay: Test B pre/postemergence pigweed; type: in vivo, Amaranthus retroflexus
How it was run: as §1

blackgrass = assay: Test B pre/postemergence blackgrass; type: in vivo, Alopecurus myosuroides
How it was run: as §1

corn = assay: Test B pre/postemergence corn; type: in vivo, Zea mays
How it was run: as §1

velvetleaf = assay: Test B pre/postemergence velvetleaf; type: in vivo, Abutilon theophrasti
How it was run: as §1

wild oat = assay: Test B pre/postemergence wild oat; type: in vivo, Avena fatua
How it was run: as §1

crabgrass = assay: Test B pre/postemergence crabgrass; type: in vivo, Digitaria sanguinalis
How it was run: as §1

[1] = Postemergence, Rate 62 g/ha, scale of 0 to 10, 0 is no effect, 10 is complete control
[2] = Postemergence, Rate 125 g/ha, scale 0 to 10, 0 is no effect, 10 is complete control
[3] = Postemergence, Rate 500 g/ha, scale of 0 to 10 where 0 is no effect and 10 is complete control
[4] = Preemergence, Rate 62 g/ha, scale 0 to 10 (0 no effect, 10 complete control)
[5] = Preemergence, Rate 125 g/ha, scale 0 to 10, 0 is no effect, 10 is complete control
[6] = Preemergence, Rate 500 g/ha, scale of 0 to 10 where 0 is no effect and 10 is complete control
[7] = Rate 250 g/ha, Postemergence, scale of 0 to 10 where 0 is no effect and 10 is complete control
[8] = Preemergence, Rate 62 g/ha, scale of 0 to 10 where 0 is no effect and 10 is complete control
[9] = Preemergence, Rate 125 g/ha, scale of 0 to 10 where 0 is no effect and 10 is complete control
[10] = Preemergence, Rate 250 g/ha, scale 0 (no effect) to 10 (complete control)
[11] = Rate 500 g/ha, Preemergence, scale 0 to 10 (0 no effect, 10 complete control)

Compound: COC(=O)CCCn1c(=O)on(C(=O)N(c2ccccc2)C(C)C)c1=O [Compound 572]
- Cocklebur plant response rating (cocklebur; [1]): 0
- Cocklebur plant response rating (cocklebur; [2]): 0
- Plant response rating, Cocklebur (cocklebur; [3]): 0
- Cocklebur plant response rating (cocklebur; [4]): 0
- Cocklebur plant response rating (cocklebur; [5]): 0
- Cocklebur plant response rating (0 to 10 scale) (cocklebur; Preemergence, Rate 250 g/ha): 0
- Cocklebur plant response rating (cocklebur; [6]): 0
- Plant response rating, Cocklebur (cocklebur; [7]): 0
- Giant foxtail plant response rating (giant foxtail; [1]): 0
- Giant foxtail plant response rating (giant foxtail; [2]): 0
- Plant response rating, Giant foxtail (giant foxtail; [3]): 0
- Giant foxtail plant response rating (giant foxtail; [4]): 0
- Giant foxtail plant response rating (giant foxtail; [5]): 0
- Giant foxtail plant response rating (0 to 10 scale) (giant foxtail; Preemergence, Rate 250 g/ha): 4
- Giant foxtail plant response rating (giant foxtail; [6]): 7
- Plant response rating, Giant foxtail (giant foxtail; [7]): 0
- Rape plant response rating (rape; [1]): 2
- Rape plant response rating (rape; [2]): 3
- Plant response rating, Rape (rape; [3]): 4
- Rape plant response rating (rape; [4]): 0
- Rape plant response rating (rape; [5]): 0
- Rape plant response rating (0 to 10 scale) (rape; Preemergence, Rate 250 g/ha): 0
- Rape plant response rating (rape; [6]): 0
- Plant response rating, Rape (rape; [7]): 3
- Plant response rating, Wheat (wheat; [3]): 0
- Wheat plant response rating (wheat; [4]): 0
- Wheat plant response rating (wheat; [5]): 0
- Wheat plant response rating (0 to 10 scale) (wheat; Preemergence, Rate 250 g/ha): 0
- Wheat plant response rating (wheat; [6]): 0
- Plant response rating, Wheat (wheat; [7]): 0
- Bedstraw plant response rating (bedstraw; [1]): 0
- Bedstraw plant response rating (bedstraw; [4]): 0
- Bedstraw plant response rating (bedstraw; [5]): 0
- Bedstraw plant response rating (0 to 10 scale) (bedstraw; Preemergence, Rate 250 g/ha): 0
- Bedstraw plant response rating (bedstraw; [6]): 0
- Plant response rating, Bedstraw (bedstraw; [7]): 0
- Nutsedge plant response rating (purple nutsedge; [1]): 0
- Nutsedge plant response rating (purple nutsedge; [2]): 0
- Nutsedge plant response rating (purple nutsedge; [4]): 0
- Nutsedge plant response rating (purple nutsedge; [5]): 0
- Nutsedge plant response rating (0 to 10 scale) (purple nutsedge; Preemergence, Rate 250 g/ha): 0
- Nutsedge plant response rating (purple nutsedge; [6]): 0
- Plant response rating, Nutsedge (purple nutsedge; [7]): 0
- B. signalgrass plant response rating (surinam grass; [1]): 0
- B. signalgrass plant response rating (surinam grass; [2]): 0
- Plant response rating, B. signalgrass (surinam grass; [3]): 0
- B. signalgrass plant response rating (surinam grass; [4]): 0
- B. signalgrass plant response rating (surinam grass; [5]): 0
- B. signalgrass plant response rating (0 to 10 scale, 0 is no effect, 10 is complete control) (surinam grass; Preemergence, Rate 250 g/ha): 0
- B. signalgrass plant response rating (surinam grass; [6]): 0
- Plant response rating, B. signalgrass (surinam grass; [7]): 0
- Plant response rating, Soybean (soybean; [3]): 7
- Soybean plant response rating (soybean; [4]): 0
- Soybean plant response rating (soybean; [5]): 0
- Soybean plant response rating (0 to 10 scale) (soybean; Preemergence, Rate 250 g/ha): 0
- Soybean plant response rating (soybean; [6]): 0
- Plant response rating, Soybean (soybean; [7]): 5
- Morningglory plant response rating (morningglory; [1]): 3
- Morningglory plant response rating (morningglory; [2]): 3
- Plant response rating, Morningglory (morningglory; [3]): 10
- Morningglory plant response rating (morningglory; [4]): 0
- Morningglory plant response rating (morningglory; [5]): 0
- Morningglory plant response rating (0 to 10 scale) (morningglory; Preemergence, Rate 250 g/ha): 0
- Morningglory plant response rating (morningglory; [6]): 0
- Plant response rating, Morningglory (morningglory; [7]): 5
- Plant response rating, Sugarbeets (sugar beet; [3]): 0
- Sugarbeets plant response rating (sugar beet; [4]): 0
- Sugarbeets plant response rating (sugar beet; [5]): 0
- Sugarbeets plant response rating (0 to 10 scale) (sugar beet; Preemergence, Rate 250 g/ha): 0
- Sugarbeets plant response rating (sugar beet; [6]): 0
- Plant response rating, Sugarbeets (sugar beet; [7]): 0
- Plant response rating, Redroot pigweed (pigweed; [3]): 0
- Redroot pigweed plant response rating (pigweed; [4]): 0
- Redroot pigweed plant response rating (pigweed; [5]): 0
- Redroot pigweed plant response rating (0 to 10 scale) (pigweed; Preemergence, Rate 250 g/ha): 0
- Redroot pigweed plant response rating (pigweed; [6]): 5
- Plant response rating, Redroot pigweed (pigweed; [7]): 0
- Blackgrass plant response rating (blackgrass; [1]): 0
- Blackgrass plant response rating (blackgrass; [2]): 0
- Plant response rating, Blackgrass (blackgrass; [3]): 0
- Blackgrass plant response rating (blackgrass; [4]): 0
- Blackgrass plant response rating (blackgrass; [5]): 0
- Blackgrass plant response rating (0 to 10 scale) (blackgrass; Preemergence, Rate 250 g/ha): 0
- Blackgrass plant response rating (blackgrass; [6]): 0
- Plant response rating, Blackgrass (blackgrass; [7]): 0
- Corn plant response rating (corn; [1]): 0
- Corn plant response rating (corn; [2]): 0
- Plant response rating, Corn (corn; [3]): 0
- Corn plant response rating (corn; [4]): 0
- Corn plant response rating (corn; [5]): 0
- Corn plant response rating (0 to 10 scale) (corn; Preemergence, Rate 250 g/ha): 0
- Corn plant response rating (corn; [6]): 0
- Plant response rating, Corn (corn; [7]): 0
- Plant response rating, Velvetleaf (velvetleaf; [3]): 7
- Velvetleaf plant response rating (velvetleaf; [4]): 0
- Velvetleaf plant response rating (velvetleaf; [5]): 0
- Velvetleaf plant response rating (0 to 10 scale) (velvetleaf; Preemergence, Rate 250 g/ha): 0
- Velvetleaf plant response rating (velvetleaf; [6]): 2
- Plant response rating, Velvetleaf (velvetleaf; [7]): 0
- Plant response rating, Wild oats (wild oat; [3]): 0
- Wild oats plant response rating (wild oat; [4]): 0
- Wild oats plant response rating (wild oat; [5]): 0
- Wild oats plant response rating (0 to 10 scale) (wild oat; Preemergence, Rate 250 g/ha): 0
- Wild oats plant response rating (wild oat; [6]): 0
- Plant response rating, Wild oats (wild oat; [7]): 0
- Crabgrass plant response rating (crabgrass; [1]): 0
- Crabgrass plant response rating (crabgrass; [2]): 0
- Plant response rating, Crabgrass (crabgrass; [3]): 8
- Crabgrass plant response rating (crabgrass; [4]): 0
- Crabgrass plant response rating (crabgrass; [5]): 0
- Crabgrass plant response rating (0 to 10 scale) (crabgrass; Preemergence, Rate 250 g/ha): 0
- Crabgrass plant response rating (crabgrass; [6]): 0
- Plant response rating, Crabgrass (crabgrass; [7]): 6

Compound: CC(C)N(C(=O)n1oc(=O)n(CCC(=O)N(C)C)c1=O)c1ccc(Cl)cc1 [Compound 719]
- Cocklebur plant response rating (cocklebur; [8]): 0
- Plant response rating, Cocklebur (cocklebur; [9]): 0
- Cocklebur plant response rating (cocklebur; [10]): 0
- Cocklebur plant response rating (cocklebur; [11]): 0
- Plant response rating, Giant foxtail (giant foxtail; [9]): 5
- Giant foxtail plant response rating (giant foxtail; [10]): 8
- Giant foxtail plant response rating (giant foxtail; [11]): 10
- Rape plant response rating (rape; [8]): 0
- Plant response rating, Rape (rape; [9]): 0
- Rape plant response rating (rape; [10]): 2
- Rape plant response rating (rape; [11]): 6
- Wheat plant response rating (wheat; [8]): 0
- Plant response rating, Wheat (wheat; [9]): 0
- Wheat plant response rating (wheat; [10]): 3
- Wheat plant response rating (wheat; [11]): 5
- Bedstraw plant response rating (bedstraw; [8]): 0
- Plant response rating, Bedstraw (bedstraw; [9]): 0
- Bedstraw plant response rating (bedstraw; [10]): 0
- Bedstraw plant response rating (bedstraw; [11]): 0
- Nutsedge plant response rating (purple nutsedge; [8]): 0
- Plant response rating, Nutsedge (purple nutsedge; [9]): 0
- Nutsedge plant response rating (purple nutsedge; [10]): 0
- Nutsedge plant response rating (purple nutsedge; [11]): 0
- B. signalgrass plant response rating (surinam grass; [8]): 3
- Plant response rating, B. signalgrass (surinam grass; [9]): 7
- B. signalgrass plant response rating (surinam grass; [10]): 7
- B. signalgrass plant response rating (surinam grass; [11]): 9
- Soybean plant response rating (soybean; [8]): 0
- Plant response rating, Soybean (soybean; [9]): 0
- Soybean plant response rating (soybean; [10]): 0
- Soybean plant response rating (soybean; [11]): 0
- Morningglory plant response rating (morningglory; [8]): 0
- Plant response rating, Morningglory (morningglory; [9]): 1
- Morningglory plant response rating (morningglory; [10]): 3
- Morningglory plant response rating (morningglory; [11]): 3
- Sugarbeets plant response rating (sugar beet; [8]): 4
- Plant response rating, Sugarbeets (sugar beet; [9]): 4
- Sugarbeets plant response rating (sugar beet; [10]): 6
- Sugarbeets plant response rating (sugar beet; [11]): 8
- Redroot pigweed plant response rating (pigweed; [8]): 7
- Plant response rating, Redroot pigweed (pigweed; [9]): 7
- Redroot pigweed plant response rating (pigweed; [10]): 10
- Redroot pigweed plant response rating (pigweed; [11]): 10
- Blackgrass plant response rating (blackgrass; [8]): 6
- Plant response rating, Blackgrass (blackgrass; [9]): 8
- Blackgrass plant response rating (blackgrass; [10]): 9
- Blackgrass plant response rating (blackgrass; [11]): 10
- Corn plant response rating (corn; [8]): 0
- Plant response rating, Corn (corn; [9]): 0
- Corn plant response rating (corn; [10]): 0
- Corn plant response rating (corn; [11]): 5
- Velvetleaf plant response rating (velvetleaf; [8]): 0
- Plant response rating, Velvetleaf (velvetleaf; [9]): 0
- Velvetleaf plant response rating (velvetleaf; [10]): 0
- Velvetleaf plant response rating (velvetleaf; [11]): 0
- Wild oats plant response rating (wild oat; [8]): 2
- Plant response rating, Wild oats (wild oat; [9]): 6
- Wild oats plant response rating (wild oat; [10]): 9
- Wild oats plant response rating (wild oat; [11]): 9
- Plant response rating, Crabgrass (crabgrass; [9]): 3
- Crabgrass plant response rating (crabgrass; [10]): 8
- Crabgrass plant response rating (crabgrass; [11]): 9
